In article PMC8396542, “Iterated Virtual Screening-Assisted Antiviral and Enzyme Inhibition Assays Reveal the Discovery of Novel Promising Anti-SARS-CoV-2 with Dual Activity” (International Journal of Molecular Sciences, 2021):

What was measured:
[1] = target: T1, SARS-CoV-2 M^pro (3CL Protease, 3CL^pro) (Severe acute respiratory syndrome coronavirus 2, UniProt P0DTD1); assay: biochemical
T1 construct: gene rep; untagged enzyme from BPS Bioscience kit; mature main protease nsp5 cut from replicase polyprotein 1ab (pp1a/pp1ab)

human furin = target: T2, human furin (Homo sapiens, UniProt P09958); assay: fluorogenic protease assay; format: biochemical
T2 construct: recombinant furin from BPS Bioscience furin protease assay kit

human TMPRSS2 = target: T3, human TMPRSS2 (Homo sapiens, UniProt O15393); assay: fluorogenic protease assay; format: biochemical
T3 construct: enzyme from BPS Bioscience TMPRSS2 fluorogenic assay kit
T3 sequence (O15393 109-492 limits assumed): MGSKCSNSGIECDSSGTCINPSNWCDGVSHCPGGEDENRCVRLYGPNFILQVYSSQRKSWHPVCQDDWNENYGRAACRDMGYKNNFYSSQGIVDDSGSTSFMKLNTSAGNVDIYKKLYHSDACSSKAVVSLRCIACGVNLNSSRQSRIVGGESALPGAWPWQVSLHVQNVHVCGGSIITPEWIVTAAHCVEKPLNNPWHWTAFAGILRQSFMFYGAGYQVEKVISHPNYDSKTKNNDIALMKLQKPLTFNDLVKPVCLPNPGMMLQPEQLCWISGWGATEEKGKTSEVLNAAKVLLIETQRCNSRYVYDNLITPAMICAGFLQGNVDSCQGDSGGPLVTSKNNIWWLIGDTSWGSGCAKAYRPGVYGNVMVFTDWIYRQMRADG

T2 sequence (P09958 108-715): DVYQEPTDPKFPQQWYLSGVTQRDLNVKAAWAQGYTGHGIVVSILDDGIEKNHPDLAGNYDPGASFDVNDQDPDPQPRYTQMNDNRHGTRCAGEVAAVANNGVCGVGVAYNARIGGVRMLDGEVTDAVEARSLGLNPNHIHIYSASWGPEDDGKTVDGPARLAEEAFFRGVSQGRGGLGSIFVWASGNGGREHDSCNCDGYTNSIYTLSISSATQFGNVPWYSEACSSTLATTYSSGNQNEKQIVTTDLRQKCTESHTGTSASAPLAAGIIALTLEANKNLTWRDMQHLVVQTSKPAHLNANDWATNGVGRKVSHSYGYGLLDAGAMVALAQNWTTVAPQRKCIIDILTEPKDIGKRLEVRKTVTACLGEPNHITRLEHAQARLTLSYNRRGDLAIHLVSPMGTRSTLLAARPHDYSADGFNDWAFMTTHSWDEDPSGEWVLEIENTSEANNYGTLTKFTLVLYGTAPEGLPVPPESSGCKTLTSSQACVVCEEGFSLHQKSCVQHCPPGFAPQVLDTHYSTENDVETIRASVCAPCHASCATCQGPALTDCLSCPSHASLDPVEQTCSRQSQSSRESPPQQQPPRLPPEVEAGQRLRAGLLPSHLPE

N=C(N/N=C/c1ccncc1)c1nonc1NCNc1nonc1C(=N)N/N=C/c1ccncc1 [M3]
IC50 [1]: 0.013 ± 0.003 µM | IC50 (human furin): 0.09 ± 0.002 µM | IC50 (human TMPRSS2): 0.05 ± 0.002 µM
